Values joined by “and” are separate entries in the source; they are usually repeats but may differ in a detail not shown here. Equal values may be shown once. Where a name gives a salt, the structure may show the parent alone. Read-outs that look alike come from different tables or passages of the source.
What was measured:
[1] = test system: p53 signaling (p53RE-bla HCT-116 cells); experiment: cells; assay type: cell-based
[2] = test system: p53 signaling (p53RE-bla HCT-116 cells); experiment: cells; assay type: cell-based; remark: listed apart in the source
[3] = test system: p53 signaling (p53RE-bla HCT-116 cells); experiment: cells; assay type: cell-based; conditions: for Emax: HCT-116, read-out: efficacy
[4] = test system: p53 signaling (p53RE-bla HCT-116 cells)
[5] = test system: p53RE-bla HCT-116 cells
[6] = test system: p53 signaling (p53RE-bla HCT-116 cells); experiment: cells; conditions: Homo sapiens
[7] = test system: p53 signaling (p53RE-bla HCT-116 cells); remark: listed apart in the source
[8] = HCT-116, read-out: p53 activation EC50, primary screening
[9] = HCT-116, read-out: p53 activation efficacy, primary screening
[10] = Homo sapiens, HCT-116, read-out: EC50, p53 activation, primary screening
[11] = Homo sapiens, HCT-116, read-out: Efficacy, p53 activation, cherry pick confirmation
[12] = HCT-116, read-out: EC50, p53 activation, primary screening
[13] = Homo sapiens, HCT-116, read-out: EC50, p53 activation, cherry pick confirmation

Row | Molecule | p53 activation EC50, cherry pick confirmation [1] | p53 activation EC50, primary screening [1] | p53 activation efficacy, cherry pick confirmation [1] | p53 activation efficacy, primary screening [1] | p53 activation EC50, cherry pick confirmation [4] | p53 activation efficacy, cherry pick confirmation [4] | Viability EC50, cherry pick confirmation [5] | Viability EC50, primary screening [5] | Viability efficacy, cherry pick confirmation [5] | Viability efficacy, primary screening [5] | p53 activation EC50, cherry pick confirmation [7] | p53 activation efficacy, cherry pick confirmation [7] | p53 activation EC50, primary screening [4] | p53 activation efficacy, primary screening [4] | EC50 [6, 8] | Emax [6, 9] | also measured
1 | Cc1cc(OC(=O)N(C)C)nn1C(=O)N(C)C [Dimetilan] | inactive | inactive | inactive | inactive | inactive | inactive | inactive | inactive | inactive | inactive | – | – | – | – | – | – | EC50 [2]: Inactive; EC50 ([3]; Homo sapiens, HCT-116): 5.11 µM; Emax ([3]; Homo sapiens): 43.6%; EC50 ([6]; HCT-116): 5.44 µM; Emax ([6]; HCT-116, read-out: efficacy): 34.6%; EC50 ([6]; HCT-116, read-out: p53 activation EC50, cherry pick confirmation): 6.19 µM; Emax ([6]; HCT-116, read-out: p53 activation efficacy, cherry pick confirmation): 33.8%
2 | Aflatoxin B1 [reference compound] | – | – | – | – | – | – | – | – | – | – | – | – | – | – | – | – | EC50 [2]: inactive; EC50 [3]: inactive; p53 activation efficacy [7]: 77.9079 and 59.8273; potency in the confirmation study compared to the primary screening [7]: tenfold higher potency; EC50 [4]: 4.5 µM and 5.3 µM and 3 µM
3 | CCc1c2c(nc3ccc(OC(=O)N4CCC(N5CCCCC5)CC4)cc13)-c1cc3c(c(=O)n1C2)COC(=O)[C@]3(O)CC [Irinotecan, reference compound] | – | – | – | – | – | – | – | – | – | – | – | – | – | – | – | – | EC50 [2]: Inactive; EC50 ([3]; Homo sapiens, HCT-116): 0.29 µM; Emax ([3]; Homo sapiens): 79.9%; EC50 ([6]; HCT-116): 0.23 µM; Emax ([6]; HCT-116, read-out: efficacy): 109%
4 | COP(=O)(OC)O/C(=C\Cl)c1cc(Cl)c(Cl)cc1Cl [Tetrachlorvinphos (Gardona), Tetrachlorvinphos] | – | – | – | – | – | – | – | – | – | – | – | – | – | – | – | – | EC50 ([2]; Homo sapiens, HCT-116, 0.5 h): 2.53 µM; EC50 ([3]; Homo sapiens, HCT-116): 18.1 µM; EC50 ([6]; HCT-116): 10.5 µM; Emax ([6]; HCT-116, read-out: efficacy): 39.9%
5 | C=CC1(C)OC(=O)N(c2cc(Cl)cc(Cl)c2)C1=O (stereo not shown) [Vinclozolin] | inactive | inactive | inactive | inactive | inactive | inactive | inactive | inactive | inactive | inactive | inactive | inactive | inactive | inactive | 16.9 µM | 39.4% | –
6 | COc1cc([C@@H]2c3cc4c(cc3[C@@H](O[C@@H]3O[C@@H]5CO[C@@H](C)O[C@H]5[C@H](O)[C@H]3O)[C@H]3COC(=O)[C@H]23)OCO4)cc(OC)c1O [etoposide, reference compound] | – | – | – | – | – | – | – | – | – | – | – | – | – | – | – | – | EC50 [1, 10]: 1.33 µM; Emax [1, 11]: 72.1%; Emax ([1]; Homo sapiens, HCT-116, read-out: Efficacy, p53 activation, primary screening): 62.9%; p53 induction in the presence of microsomes compared with absence of microsomes [7]: inactivity or lower activity; EC50, p53 activation, cherry pick confirmation [4]: inactive; EC50, p53 activation, primary screening [4]: inactive; Efficacy, p53 activation, cherry pick confirmation [4]: inactive; Efficacy, p53 activation, primary screening [4]: inactive; EC50, viability, cherry pick confirmation [5]: inactive; EC50, viability, primary screening [5]: inactive; Efficacy, viability, cherry pick confirmation [5]: inactive; Efficacy, viability, primary screening [5]: inactive; EC50 [6, 12]: 0.888 µM; Emax ([6]; HCT-116, read-out: Efficacy, p53 activation, cherry pick confirmation): 32.9%; Emax ([6]; HCT-116, read-out: Efficacy, p53 activation, primary screening): 22.1%
7 | O=P(OCC(Br)CBr)(OCC(Br)CBr)OCC(Br)CBr (stereo not shown) [Tris(2,3-dibromopropyl) phosphate] | inactive | inactive | inactive | inactive | inactive | inactive | inactive | inactive | inactive | inactive | inactive | inactive | inactive | inactive | 46.6 µM | 38.9% | –
8 | O=C(O)CCCc1ccc(N(CCCl)CCCl)cc1 [Chlorambucil] | – | – | – | – | – | – | – | – | – | – | – | – | – | – | – | – | p53 activation efficacy [1]: 39.7467; EC50 ([1]; Homo sapiens, HCT-116, read-out: p53 activation EC50): 25.7 µM; Emax ([1]; Homo sapiens, HCT-116, read-out: p53 activation efficacy): 31.3%; EC50 ([1]; read-out: p53 activation EC50): 37.3 µM; p53 activation EC50 [7]: inactive; p53 activation EC50 [4]: inactive; p53 activation efficacy [4]: inactive; Viability EC50 [5]: inactive; Viability efficacy [5]: inactive; EC50 ([6]; HCT-116, read-out: p53 activation EC50): 22.6 µM; Emax ([6]; HCT-116, read-out: p53 activation efficacy): 25.2%
9 | CCCCCCNC(=O)n1cc(F)c(=O)[nH]c1=O [Carmofur] | – | – | – | – | – | – | – | – | – | – | – | – | – | – | – | – | EC50 [1, 13]: 17.8 µM; EC50 [1, 10]: 2.97 µM; Emax [1, 11]: 121%; EC50, p53 activation, cherry pick confirmation [7]: inactive; Efficacy, p53 activation, cherry pick confirmation [7]: inactive; EC50, p53 activation, cherry pick confirmation [4]: inactive; EC50, p53 activation, primary screening [4]: inactive; Efficacy, p53 activation, cherry pick confirmation [4]: inactive; Efficacy, p53 activation, primary screening [4]: inactive; EC50, viability, cherry pick confirmation [5]: inactive; EC50, viability, primary screening [5]: inactive; Efficacy, viability, cherry pick confirmation [5]: inactive; Efficacy, viability, primary screening [5]: inactive; EC50 [6, 12]: 2.11 µM
10 | CCCCOCCOP(=O)(OCCOCCCC)OCCOCCCC [Tris(2-butoxyethyl) phosphate] | inactive | inactive | inactive | inactive | inactive | inactive | inactive | inactive | inactive | inactive | inactive | inactive | inactive | inactive | 35.1 µM | 48.7% | –
11 | c1ccc2cc3c(cc2c1)-c1cccc2cccc-3c12 [Benzo(k)fluoranthene] | – | – | – | – | – | – | – | – | – | – | – | – | – | – | – | – | p53 activation Efficacy, No MS [1]: 189.362% and 164.004%; EC50 ([1]; Homo sapiens, HCT-116, read-out: p53 activation EC50, No MS): 8.42 µM; EC50 ([1]; read-out: p53 activation EC50, No MS): 12.2 µM; EC50 ([2]; Homo sapiens, HCT-116, 0.5 h): 10.4 µM; EC50 ([3]; Homo sapiens, HCT-116): 32.9 µM; Viability EC50, HLM [5]: inactive; Viability EC50, No MS [5]: inactive; Viability EC50, RLM [5]: inactive; Viability Efficacy, HLM [5]: inactive; Viability Efficacy, No MS [5]: inactive; Viability Efficacy, RLM [5]: inactive; EC50 ([6]; HCT-116): 37 µM; Emax ([6]; HCT-116, read-out: efficacy): 565%
12 | CN1CCc2cc3c(cc2C1O)OCO3 (stereo not shown) [Hydrastinine hydrochloride] | inactive | inactive | inactive | inactive | inactive | inactive | inactive | inactive | inactive | inactive | inactive | inactive | inactive | inactive | 28.6 µM | 56.5% | –
13 | CC(O)CN(CC(C)O)CC(C)O (stereo not shown) [Triisopropanolamine] | inactive | inactive | inactive | inactive | inactive | inactive | inactive | inactive | inactive | inactive | inactive | inactive | inactive | inactive | 37 µM | 40% | –
14 | O=c1[nH]cc(F)c(=O)[nH]1 [5-Fluorouracil] | – | – | – | – | – | – | – | – | – | – | – | – | – | – | – | – | EC50 [1, 13]: 21.2 µM; EC50 [1, 10]: 5.93 µM; Emax [1, 11]: 98.3%; EC50, p53 activation, cherry pick confirmation [7]: inactive; Efficacy, p53 activation, cherry pick confirmation [7]: inactive; EC50, p53 activation, cherry pick confirmation [4]: inactive; EC50, p53 activation, primary screening [4]: inactive; Efficacy, p53 activation, cherry pick confirmation [4]: inactive; Efficacy, p53 activation, primary screening [4]: inactive; EC50, viability, cherry pick confirmation [5]: inactive; EC50, viability, primary screening [5]: inactive; Efficacy, viability, cherry pick confirmation [5]: inactive; Efficacy, viability, primary screening [5]: inactive; EC50 [6, 12]: 3.79 µM
